This is an account of results in patent US20230270112A1, “A METHOD OF DI[…] GASEOUS ENVIRONMENT, A LIQUID, OR A SOLID SURFACE” (priority 2020, published 2023).

The conditions of experiment [1]: with cucurbit[7]uril; cited from earlier work.
Experiment [2] concerns respiratory syncytial virus (RSV). Briefly: Titration by TCID50 assay. The experiment is classed as cell-based. Particulars: FIG. 3b.
In experiment [3] the test system is herpes simplex virus serotype two (HSV-2). Nature of the experiment: Titration by TCID50 assay (incl. guest-host chemistry assay). It is filed as cell-based. Particulars: mixed with the virus for 5 minutes, FIG. 3a.
The test system is the same in experiment [4]. Briefly: DNA exposure assay. Particulars: FIG. 6.
In experiment [5] the test system is respiratory syncytial virus (RSV). Nature of the experiment: Dose-response (plaque) assay. It is filed as cell-based. Particulars: FIG. 4b.
The subject of experiment [6] is herpes simplex virus serotype two (HSV-2). Nature of the experiment: Dose-response (plaque) assay. To be noted: FIG. 4a. It is filed as cell-based.
Experiment [7] has the same test system. Briefly: Time of addition study. Particulars: FIG. 7. It is filed as cell-based.
For experiment [8] the test system is unchanged. Nature of the experiment: Virucidal assay. Particulars: FIG. 5. The experiment is classed as cell-based.
A further experiment relates to SARS-CoV-2. The experiment is classed as cell-based.

What is called EC50 is the concentration at which the effect is half-maximal. A lower EC50 goes with higher potency in that assay.

Read-outs that look alike come from different tables or passages of the source.

On to `NC12CC3CC(CC(C3)C1)C2` [ADA, 1-Adamantylamine], for which the binding affinity in [1] is given as 1.7+/−0.8×10^14 M^−1.
Consider `O=C1N2CN3C(=O)N4CN5C(=O)N6CN7C(=O)N8CN9C(=O)N%10CN%11C(=O)N%12CN1C1C2N2CN%13C(=O)N(CN%14C(=O)N(CN%15C(=O)N(CN%16C(=O)N(CN%17C(=O)N(CN1C2=O)C%12C%11%17)C%10C9%16)C8C7%15)C6C5%14)C4C3%13` (stereo not shown) [cucurbit[6]uril], for which the antiviral effect result in [2] is given as “ineffective”. The viral titre reduction entry in [3] is “lack of viral titre reduction”. Besides, the “DNA detected following viral exposure, DNAse and PCR amplification” value in experiment [4] is “DNA was detected”.
Take `O=C1N2CN3C(=O)N4CN5C(=O)N6CN7C(=O)N8CN9C(=O)N%10CN%11C(=O)N%12CN%13C(=O)N%14CN%15C(=O)N%16CN1C1C2N2CN%17C(=O)N(CN%18C(=O)N(CN%19C(=O)N(CN%20C(=O)N(CN%21C(=O)N(CN%22C(=O)N(CN%23C(=O)N(CN1C2=O)C%16C%15%23)C%14C%13%22)C%12C%11%21)C%10C9%20)C8C7%19)C6C5%18)C4C3%17` (stereo not shown) [cucurbit[8]uril, Cucurbit[8]uril]: in experiment [2], the antiviral effect entry is “ineffective”. For the same molecule, the viral titre reduction result in experiment [3] is “lack of viral titre reduction”. For the same molecule, in experiment [4], the “DNA detected following viral exposure, DNAse and PCR amplification” value is “No DNA was detected”.
Turning to cucurbit[7]uril, the EC50 was 1070 µg/mL in experiment [5] and 1270 µg/mL in experiment [6]. Besides, the viral inhibition entry in experiment [7] (added after the virus has been exposed to the cells (post-infection)) and in [7] (removed prior to viral introduction (pre-treatment)) was “no viral inhibition” each time. Also, the antiviral effect result in experiment [7] (added directly to the virus before infection ('during infection')) is on record as “an antiviral effect was observed”. The “reduction in viral titre” value in experiment [3] (20-50 mg/mL) is on record as “approximately 5 log”. For the same molecule, the “mode of action (virucidal or virustatic)” value in experiment [8] was “virucidal”. Besides, the antiviral efficacy entry in the experiment on SARS-CoV-2 is listed as “largely ineffective”; in the experiment with SARS-CoV-2 (50 mg/mL), “highly effective”.
